Here are results for 9 compounds from patent US12649722B2, “Herbicidal cinnoline derivatives” (SYNGENTA CROP PROTECTION AG, priority 2020, dated 2026).

Holding throughout (type): in vivo
The subject of test [1] is Amaranthus retoflexus (AMARE). Description: Pre-emergence Test, AMARE. The conditions noted are these: 1000 g/ha, evaluated after 13 days.
For test [2], the system named is Setaria faberi (SETFA). Description: Post-emergence Test, SETFA. The conditions noted are these: sprayed after 8 days cultivation, 1000 g/ha, evaluated after 13 days. The procedure: (§1) Seeds of a variety of test species are sown in standard soil in pots (Amaranthus retoflexus (AMARE), Solarium nigrum (SOLNI), Setaria faberi (SETFA), Lolium perenne (LOLPE), Echinochloa crus-galli (ECHCG), Ipornoea hederacea (IPOHE)). After 8 days cultivation under controlled conditions in a glasshouse (at 24° C./16° C., day/night; 14 hours light; 65% humidity), the plants are sprayed with an aqueous spray solution derived from the formulation of the technical active ingredient in acetone/water (50:50) solution containing 0.5% Tween 20 (polyoxyethylene sorbitan monolaurate, CAS RN 9005-64-5). Compounds are applied at 1000 g/ha unless otherwise stated. The test plants are then grown in a glasshouse under controlled conditions in a glasshouse (at 24° C./16° C., day/night; 14 hours light; 65% humidity) and watered twice daily. After 13 days the test is evaluated for the percentage damage caused to the plant. The biological activities are shown in the following table on a five-point scale (5=81-100%; 4=61-80%; 3=41-60%; 2=21-40%; 1=10-20%; 0=0%; −=not tested).

The subject of test [3] is Setaria faberi (SETFA). Briefly: Pre-emergence Test, SETFA. To be noted: 1000 g/ha, evaluated after 13 days.
The test system of test [4] is Echinochloa crus-galli (ECHCG). Briefly: Pre-emergence Test, ECHCG. The conditions noted are these: 1000 g/ha, evaluated after 13 days.
The test system of test [5] is Amaranthus retoflexus (AMARE). Description: Post-emergence Test, AMARE. To be noted: sprayed after 8 days cultivation, 1000 g/ha, evaluated after 13 days. Here is the method:
as §1

For test [6], the system named is ZEAMX. Description: Post-emergence Test, ZEAMX. The conditions noted are these: sprayed after 8 days cultivation, 1000 g/ha, evaluated after 13 days. Here is the method:
[The procedure below names another target; the source lists this target under the same test.] as §1

Test [7] has as its system Ipornoea hederacea (IPOHE). Description: Post-emergence Test, IPOHE. The conditions noted are these: sprayed after 8 days cultivation, 1000 g/ha, evaluated after 13 days. The procedure: as §1
For test [8], the system named is Echinochloa crus-galli (ECHCG). Description: Post-emergence Test, ECHCG. The conditions noted are these: sprayed after 8 days cultivation, 1000 g/ha, evaluated after 13 days. The procedure: as §1
In test [9] the test system is ABUTH. Briefly: Pre-emergence Test, ABUTH. To be noted: 1000 g/ha, evaluated after 13 days.
Test [10] relates to ABUTH. Description: Post-emergence Test, ABUTH. To be noted: sprayed after 8 days cultivation, 1000 g/ha, evaluated after 13 days. The procedure:
[The procedure below names another target; the source lists this target under the same test.] as §1

Test [11] deals with Ipornoea hederacea (IPOHE). Description: Pre-emergence Test, IPOHE. To be noted: 1000 g/ha, evaluated after 13 days.
Test [12] concerns ZEAMX. Description: Pre-emergence Test, ZEAMX. To be noted: 1000 g/ha, evaluated after 13 days.

With `CCOC(=O)c1nn(-c2ccc(OC(F)(F)F)cc2)c2cccc(-c3cc(C(F)F)on3)c2c1=O` [Compound P12, ethyl 5-[5-(difluoromethyl)isoxazol-3-yl]-4-oxo-1-[4-(trifluoromethoxy)phenyl] cinnoline-3-carboxylate], the “percentage damage caused to the plant, AMARE” value in test [1] and in test [5] was 0 (0=0%) throughout. For the same compound, the “percentage damage caused to the plant, SETFA” value in the test with Setaria faberi (SETFA) [2] is listed as 2 (2=21-40%); in the test on Setaria faberi (SETFA) [3], 0 (0=0%). Also, the “percentage damage caused to the plant, ECHCG” value in test [4] and in test [8] was 0 (0=0%) each time. The “percentage damage caused to the plant, ZEAMX” value with ZEAMX [6] is 1 (1=10-20%). Moreover, the “percentage damage caused to the plant, IPOHE” value in test [7] is given as 2 (2=21-40%); in [11], 0 (0=0%). In addition, the “percentage damage caused to the plant, ABUTH” value in the test on ABUTH [9] was 0 (0=0%); with ABUTH [10] it was 1 (1=10-20%).

As to `O=C(O)c1nn(-c2ccc(OC(F)(F)F)cc2)c2cccc(-c3cc(C(F)F)on3)c2c1=O` [Compound P13, 5-[5-(difluoromethyl)isoxazol-3-yl]-4-oxo-1-[4-(trifluoromethoxy)phenyl] cinnoline-3-carboxylic acid], the “percentage damage caused to the plant, AMARE” value in [1] was 0 (0=0%); in test [5] it was 1 (1=10-20%). Also, the “percentage damage caused to the plant, SETFA” value with Setaria faberi (SETFA) [2] is 4 (4=61-80%); with Setaria faberi (SETFA) [3], 0 (0=0%). The “percentage damage caused to the plant, ZEAMX” value is reported as 0 (0=0%) in the test with ZEAMX [12] and 3 (3=41-60%) in the test on ZEAMX [6]. For the same compound, the “percentage damage caused to the plant, ECHCG” value in [4] is 0 (0=0%); in test [8], 3 (3=41-60%). Besides, the “percentage damage caused to the plant, IPOHE” value in test [7] is 2 (2=21-40%); in [11], 0 (0=0%). For the same compound, the “percentage damage caused to the plant, ABUTH” value in the test on ABUTH [9] and with ABUTH [10] was 0 (0=0%) throughout.

For the compound `CCOC(=O)c1nn(-c2ccc(OC(F)(F)F)cc2)c2cccc(/C(C)=N/O)c2c1=O` [Compound P14, ethyl 5-[(E)-N-hydroxy-C-methyl-carbonimidoyl]-4-oxo-1-[4-(trifluoromethoxy)phenyl] cinnoline-3-carboxylate], the “percentage damage caused to the plant, AMARE” value in test [1] is 1 (1=10-20%); in [5], 2 (2=21-40%). Further, the “percentage damage caused to the plant, SETFA” value is 3 (3=41-60%) in the test with Setaria faberi (SETFA) [2] and 4 (4=61-80%) in the test with Setaria faberi (SETFA) [3]. The “percentage damage caused to the plant, ZEAMX” value with ZEAMX [12] is 2 (2=21-40%); in the test on ZEAMX [6] it was 4 (4=61-80%). In addition, the “percentage damage caused to the plant, ECHCG” value in test [4] and in test [8] was 4 (4=61-80%) each time. The “percentage damage caused to the plant, IPOHE” value in test [7] is on record as 1 (1=10-20%); in test [11], 0 (0=0%). Besides, the “percentage damage caused to the plant, ABUTH” value with ABUTH [9] is 1 (1=10-20%); with ABUTH [10], 3 (3=41-60%).

As to `C/C(=N\O)c1cccc2c1c(=O)c(C(=O)O)nn2-c1ccc(OC(F)(F)F)cc1` [Compound P15, 5-[(E)-N-hydroxy-C-methyl-carbonimidoyl]-4-oxo-1-[4-(trifluoromethoxy)phenyl] cinnoline-3-carboxylic acid], the “percentage damage caused to the plant, AMARE” value in [1] is given as 2 (2=21-40%); in test [5], 1 (1=10-20%). Also, the entries for the “percentage damage caused to the plant, SETFA” value in the test on Setaria faberi (SETFA) [2] and in the test with Setaria faberi (SETFA) [3] were 3 (3=41-60%) and 5 (5=81-100%), respectively. Besides, the “percentage damage caused to the plant, ZEAMX” value with ZEAMX [12] and in the test with ZEAMX [6] was 3 (3=41-60%) in each case. The “percentage damage caused to the plant, ECHCG” value in test [4] and in [8] was 4 (4=61-80%) throughout. Moreover, the “percentage damage caused to the plant, IPOHE” value in [7] was 3 (3=41-60%); in test [11], 0 (0=0%). In addition, the results for the “percentage damage caused to the plant, ABUTH” value in the test with ABUTH [9] and with ABUTH [10] were 2 (2=21-40%) and 3 (3=41-60%), respectively.

Regarding `C=Cc1cccc2c1c(=O)c(C(=O)OCC)nn2-c1ccc(OC(F)(F)F)cc1` [Compound P16, ethyl 4-oxo-1-[4-(trifluoromethoxy)phenyl]-5-vinyl-cinnoline-3-carboxylate], the “percentage damage caused to the plant, AMARE” value in [1] and in [5] was 2 (2=21-40%) each time. Moreover, the “percentage damage caused to the plant, SETFA” value is 4 (4=61-80%) in the test with Setaria faberi (SETFA) [2] and 3 (3=41-60%) with Setaria faberi (SETFA) [3]. The “percentage damage caused to the plant, ZEAMX” value in the test with ZEAMX [12] is reported as 1 (1=10-20%); with ZEAMX [6] it was 2 (2=21-40%). Moreover, the “percentage damage caused to the plant, ECHCG” value in [4] is recorded as 2 (2=21-40%); in [8], 3 (3=41-60%). The “percentage damage caused to the plant, IPOHE” value in test [7] and in test [11] was 1 (1=10-20%) throughout. Besides, the “percentage damage caused to the plant, ABUTH” value in the test on ABUTH [9] is 2 (2=21-40%); with ABUTH [10], 1 (1=10-20%).

Turning to `CCOC(=O)c1nn(-c2ccc(OC(F)(F)F)cc2)c2cccc([N+](=O)[O-])c2c1=O` [Compound P39, ethyl 5-nitro-4-oxo-1-[4-(trifluoromethoxy)phenyl] cinnoline-3-carboxylate], the “percentage damage caused to the plant, AMARE” value in test [1] and in test [5] was 0 (0=0%) each time. Also, the “percentage damage caused to the plant, SETFA” value was 3 (3=41-60%) with Setaria faberi (SETFA) [2] and 5 (5=81-100%) in the test on Setaria faberi (SETFA) [3]. For the same compound, the “percentage damage caused to the plant, ZEAMX” value in the test on ZEAMX [12] and in the test on ZEAMX [6] was 0 (0=0%) throughout. The “percentage damage caused to the plant, ECHCG” value is 2 (2=21-40%) in test [4] and 3 (3=41-60%) in [8]. The “percentage damage caused to the plant, IPOHE” value in [7] and in test [11] was 0 (0=0%) in each case. The “percentage damage caused to the plant, ABUTH” value in the test on ABUTH [9] is on record as 1 (1=10-20%).

Turning to `O=C(O)c1nn(-c2ccc(OC(F)(F)F)cc2)c2cccc([N+](=O)[O-])c2c1=O` [Compound P40, 5-nitro-4-oxo-1-[4-(trifluoromethoxy)phenyl] cinnoline-3-carboxylic acid], the results for the “percentage damage caused to the plant, AMARE” value in [1] and in test [5] were 2 (2=21-40%) and 1 (1=10-20%), respectively. Further, the “percentage damage caused to the plant, SETFA” value in the test with Setaria faberi (SETFA) [2] and in the test on Setaria faberi (SETFA) [3] was 5 (5=81-100%) in each case. Moreover, the “percentage damage caused to the plant, ZEAMX” value in the test with ZEAMX [12] is 0 (0=0%); in the test on ZEAMX [6], 1 (1=10-20%). The “percentage damage caused to the plant, ECHCG” value in test [4] is on record as 2 (2=21-40%); in [8], 3 (3=41-60%). In addition, the “percentage damage caused to the plant, IPOHE” value in test [7] and in test [11] was 0 (0=0%) throughout. For the same compound, the “percentage damage caused to the plant, ABUTH” value in the test with ABUTH [9] is given as 3 (3=41-60%).

As for `COc1ccc(-n2nc(C(=O)O)c(=O)c3c(C#N)cccc32)cc1OC` [Compound P41, 5-cyano-1-(3,4-dimethoxyphenyl)-4-oxo-cinnoline-3-carboxylic acid], the “percentage damage caused to the plant, AMARE” value in [1] and in [5] was 0 (0=0%) throughout. The figures for the “percentage damage caused to the plant, SETFA” value with Setaria faberi (SETFA) [2] and with Setaria faberi (SETFA) [3] were 2 (2=21-40%) and 0 (0=0%), respectively. Further, the “percentage damage caused to the plant, ZEAMX” value in the test on ZEAMX [12] and in the test on ZEAMX [6] was 0 (0=0%) in each case. Besides, in [4], the “percentage damage caused to the plant, ECHCG” value is on record as 0 (0=0%). Moreover, the figures for the “percentage damage caused to the plant, IPOHE” value in test [7] and in test [11] were 1 (1=10-20%) and 0 (0=0%), respectively. For the same compound, the “percentage damage caused to the plant, ABUTH” value is recorded as 0 (0=0%) with ABUTH [9] and 1 (1=10-20%) with ABUTH [10].

Regarding `CCOC(=O)c1nn(-c2ccc(OC)c(OC)c2)c2cccc(C#N)c2c1=O` [Compound P42, ethyl 5-cyano-1-(3,4-dimethoxyphenyl)-4-oxo-cinnoline-3-carboxylate], the “percentage damage caused to the plant, AMARE” value in test [1] and in test [5] was 0 (0=0%) each time. Further, the “percentage damage caused to the plant, SETFA” value with Setaria faberi (SETFA) [2] and in the test with Setaria faberi (SETFA) [3] was 0 (0=0%) each time. For the same compound, the “percentage damage caused to the plant, ZEAMX” value with ZEAMX [12] and in the test on ZEAMX [6] was 0 (0=0%) throughout. The “percentage damage caused to the plant, ECHCG” value in test [4] is 0 (0=0%). Moreover, the “percentage damage caused to the plant, IPOHE” value in [7] and in test [11] was 0 (0=0%) each time. The “percentage damage caused to the plant, ABUTH” value in the test with ABUTH [9] and in the test on ABUTH [10] was 0 (0=0%) throughout.
